PMC10987128, “A Natural Small Molecule Mitigates Kidney Fibrosis by Targeting Cdc42‐mediated GSK‐3β/β‐catenin Signaling” (Advanced Science, 2024)

Tests used:
[1] = biological target: T1, Cdc42 (cell division cycle 42) (Homo sapiens, UniProt P60953); test: SPR (Biacore 8K, Cdc42 immobilized on CM5 chip), positive control; format: binding
T1 construct: recombinant Cdc42 protein (230-00660-100, RayBio)
Description: SPR (Biacore 8K, Cdc42 immobilized on CM5 chip), positive control on Cdc42 (cell division cycle 42) | We used ZCL278, a well‐known Cdc42 binding compound, as a positive control in SPR experiments

[2] = biological target: T1, Cdc42 (cell division cycle 42); test: SPR (Biacore 8K, Cdc42 immobilized on CM5 chip); supported by CETSA and TPP in NRK-49F cells; format: binding

T1 sequence (P60953 1-188): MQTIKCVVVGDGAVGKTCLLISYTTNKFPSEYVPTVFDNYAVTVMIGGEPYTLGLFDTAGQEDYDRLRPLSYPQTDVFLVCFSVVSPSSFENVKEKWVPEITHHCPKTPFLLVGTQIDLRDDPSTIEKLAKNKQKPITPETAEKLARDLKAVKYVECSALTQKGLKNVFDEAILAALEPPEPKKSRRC

Kd [1]	SMILES	Kd [2]
18.6 µM	Cc1cc(C)nc(NS(=O)(=O)c2ccc(NC(=S)NC(=O)COc3ccc(Br)cc3Cl)cc2)n1 [ZCL278]	
	C=C(C)[C@]12C[C@@H](C)[C@]34OC5(CCCCCCC[C@H](C)[C@@H]6[C@@H]3[C@@](O)(C(=O)[C@@]6(C)O)[C@H](O)[C@@]3(CO)O[C@H]3[C@H]4[C@H]1O5)O2 [compound 15, daphnepedunin A]	15.6 µM
